Test results as given in a melting point compilation (Tetko et al.; mined from patent text by program, amines drawn as free bases though some values may be those of a salt).

melting point	Structure (SMILES)
163 to 176 °C	COc1cc(C2=CCCCC2)c(Cl)cc1C(=O)N1Cc2ccc(C(=O)N(C)C[C@@H]3OC(=O)O[C@H]3[C@H](O)[C@H]3COC(=O)O3)n2Cc2ccccc21
83 to 84 °C	C#CCN(C)C(=S)Nc1ccccc1CC(=O)OC
181 to 182 °C	CC(C)(C)C(NC(=O)c1ccc(-c2ccco2)cc1)NC(=NC#N)Nc1cccnc1 (stereo not given)
210 to 212 °C	COc1ccc(C(=C/C=C/C(=O)Nc2ccc(-c3cccnc3)cc2)c2ccc(OC)cc2)cc1
85 to 87 °C	CS(=O)(=O)Oc1ccc2c(c1)C(=O)C(CC=O)C2 (racemic)
130 to 133 °C	Cc1cccc(NCCNc2cccc(C)c2C)c1C
145 to 146 °C	CN(c1ccc(O)cc1)S(=O)(=O)c1ccc(C(F)(F)F)cc1
149 to 150 °C	O=C(NNS(=O)(=O)c1ccccc1)c1ccccc1Oc1ccccc1
230 to 232 °C	COc1ccccc1N1CCN(S(=O)(=O)c2ccc(N)cc2)CC1
118 to 119 °C	O=C1N[C@H](Cc2cccc(OC(F)(F)C(F)F)c2)[C@H](c2cccc(F)n2)O1 (racemic)
164 °C	Fc1ccc(Cn2c(N3CCC(Nc4nc5ccccc5n4Cc4ccccc4)CC3)nc3ccccc32)cc1
197 to 199 °C	Cc1ccc(C(=O)Nc2ccc(C(=O)N3Cc4ccccc4Cc4ccccc43)cc2)c(C)c1
46 °C	O=C(CBr)c1ccc(Sc2ccccc2)cc1
72 to 74 °C	CCC(CC)Nc1c(C)cnc(Oc2c(C)cc(Cl)cc2C)c1N
> 300 °C	CS(=O)(=O)NCc1cc(Br)cc2[nH]c(=O)c(=O)[nH]c12
161 to 164 °C	CC(C)COc1ccc(C=CC(=O)O)cc1
235 to 236 °C	O=C(N[C@H](Cc1ccc(F)cc1)[C@@H](O)c1ccc(C(F)(F)F)cc1)c1ccc(F)c2ccccc12 (racemic)
102 to 103 °C	CCCCCCCCCC(=O)NC(=O)OCc1nc(C(C)C)c(Sc2cc(Cl)cc(Cl)c2)n1CC
253 to 255 °C	N#Cc1cnc2cc3ccccc3cc2c1Cl
145 to 146 °C	CC(=O)N1CCC(Nc2ccccc2Oc2ccc(Cl)cc2Cl)CC1
160 to 165 °C	COc1c([N+](=O)[O-])ccc2c1C(=O)CC1(CCN(C(C)=O)CC1)O2
94 to 96 °C	N#CC(=NO)c1c(Cl)cccc1Cl
181 to 183 °C	CC1CN(c2ccc(Cl)cc2)N=C1NC(=O)C(F)(F)F (stereo not given)
> 250 °C	O=c1[nH]c(N2CCOCC2)nc2c1CC(S(=O)(=O)c1ccccc1)CC2 (stereo not given)

melting point	Structure (SMILES)
248 to 250 °C	CC(=O)Nc1cccc(-c2ccc3nncn3n2)c1
105 to 107 °C	O=S(=O)(/C=C/c1ccc(Cl)cc1)Nc1ccc(F)cc1
197 to 198 °C	CCOCc1nc2c(N)nc3cc(-c4cccnc4)ccc3c2n1CC1CCN(C(=O)OC(C)(C)C)CC1
162 °C	CC(C)N(C1CCCCC1)S(=O)(=O)N[C@@H](Cc1ccc(Nc2nccc3cnccc23)cc1)C(=O)O
114 to 117 °C	COc1cc(N)ccc1C(O)c1cc(C)ccn1 (stereo not given)
181 °C	CN1CCN(S(=O)(=O)c2cccc(NC(=O)c3cnn4c(C(F)(F)F)cc(-c5ccc(Cl)c(Cl)c5)nc34)c2)CC1
94 to 95 °C	CN(C)CCNC(=O)N1CCC(Oc2cccc(Cl)c2Cl)C1 (stereo not given)
> 280 °C	CCn1c(=O)c2[nH]c(/C=C/c3ccc(C(F)(F)F)cc3)nc2n(CC)c1=O
121 to 123 °C	COc1cc(Cl)ccc1N(Cc1cccnc1)S(C)(=O)=O
67 °C	CN1CCCC1=C(C#N)c1ccc([N+](=O)[O-])cc1
94.5 to 96 °C	CS(=O)CC(=O)c1ccc(F)cc1 (stereo not given)
162 to 164 °C	O=C1C=CC(=O)N1c1ccc(Oc2ccc3ccc(Oc4ccc(N5C(=O)C=CC5=O)cc4)cc3c2)cc1
128 to 131 °C	COc1cc(NC(C)CCCN)c2nccc(C)c2c1Oc1cccc(C(F)(F)F)c1 (stereo not given)
210 to 211 °C	CC(C)C(=O)OCC(=O)C12OC(C3CCCCC3)OC1CC1C3CCC4=CC(=O)C=CC4(C)C3C(O)CC12C (stereo not given)
238 °C	O=C(Nc1cccc(S(=O)(=O)NCC2CC2)c1)c1cnn2c(C(F)F)cc(-c3ccc(C(F)(F)F)cc3)nc12
162 to 164 °C	Nc1nc2ccc(Cc3ccc(F)cc3)cc2s1
195 to 197 °C	COCCNc1nc(N)nc(-c2cc(Cl)ccc2Cl)n1
195 to 196 °C	NC(=O)CC1Nc2cccc3cccc(c23)S1(=O)=O (stereo not given)
211 to 212 °C	CSc1ccc(-c2ccc(=O)[nH]c2C)cc1
120 to 121 °C	Cc1nc(-c2cc3c(Oc4ccc(Cl)cc4)cncc3s2)no1
65 to 66 °C	COc1ccc2cc([C@H](C)C(=O)OC[C@@]3(C)COC(C)(C)O3)ccc2c1
112 °C	CC(C)(C)OC(=O)c1ccc(C(=O)N[C@H]2CN3C(=O)N(c4cc(Cl)cc(Cl)c4)C(=O)[C@@]3(Cc3ccc(Br)cc3)C2)cc1
73 to 75 °C	CC(C)(N)CNC(CO)(CO)CO
130 to 132 °C	COc1ccc(-c2nnc(Cl)nc2-c2ccc(OC)cc2)cc1

melting point	Structure (SMILES)
48 to 51 °C	Cc1cc(COc2ccc(Oc3ccccc3)cc2)on1
205 to 206 °C	COCCc1nc2c(N)nc3ccccc3c2n1CC1(O)CCOCC1
67 °C	CCOC(=O)C(=CC=C(C#N)c1ccccc1)N(C)C
253 to 255 °C	N#CC=CNc1ccnc(-c2ccncc2)n1
73 to 74 °C	Cc1cc(OC(F)(F)C(F)Cl)nc(N)n1 (stereo not given)
222 to 223 °C	CCCCOc1nc(N)c2[nH]c(=O)n(CCNc3cccc(CC(=O)OC)c3)c2n1
184 to 185 °C	Cc1ccsc1C=C(O)C(=O)O
167 to 168 °C	NC(=O)Nc1ccc(OC(F)C(F)(F)F)cc1 (stereo not given)
345 °C	COc1ccc(S(N)(=O)=O)cc1N=Nc1c(O)c(O)c(N=Nc2cc(S(N)(=O)=O)ccc2OC)c2ccccc12
104 to 105 °C	COc1ccccc1-c1nc(CC(=O)O)cs1
180 °C	Cc1cc(C(=O)NC(=O)NC2CCCCC2)no1
88 to 92 °C	CC(C)(C)OC(=O)N1CCC(c2nc3cc(-c4ccc(S(C)(=O)=O)cc4F)ccc3[nH]2)CC1
168 to 170 °C	COc1ccc(CNc2nnc(Cl)c3cc(Cl)ccc23)cc1Cl
207 °C	COc1ccc(CNc2nc(-n3ccnc3)nc3sc(C)cc23)cc1OC
129 °C	COc1cc2c(c(Cl)c1Cl)C(=O)C(C)C2 (stereo not given)
169 to 171 °C	O=c1[nH]c(=O)n(C2OC(CO)CC2O)cc1F (stereo not given)
129 to 131 °C	COCOCc1nc(N)c2nccnc2n1
161 °C	O=S1(=O)c2cccc3cccc(c23)N1CCN1CCC(Cc2c[nH]c3ccc(F)cc23)CC1
97 °C	O=[N+]([O-])c1cc(Cl)c(Cl)cc1NCCCO
104 to 106 °C	CCOP(=O)(CC(Nc1cccnc1)c1cc(OC)c(OC)c(OC)c1)OCC (stereo not given)
195 °C	O=C(O)CCCc1cc2nc(C(F)(F)F)ccc2n1S(=O)(=O)c1cccc2ccccc12
112 °C	O=C1CC2CCCCC2C(=O)C1C(=O)c1ccc(Cl)cc1[N+](=O)[O-] (stereo not given)
137 to 139 °C	COC(=O)C=Cc1cncn1Cc1ccccc1
219 to 220 °C	NC(=O)c1cccc(-n2c(=O)n(Cc3cccnc3)c(=O)c3cccnc32)c1

melting point	Structure (SMILES)
119 to 122 °C	CN(CCc1ccc(NC(N)=S)cc1)Cc1ccccc1
251 to 254 °C	Cc1ccc(N2C(=O)c3ccccc3C2=O)c(O)c1
112 °C	CN(C)C(=S)Oc1ccccc1C#N
153 to 154 °C	Cc1c(C)c2c(c(C)c1O)CCC(C)(C(=O)N1CCC(c3ccc(N)cc3)CC1)O2 (stereo not given)
109 to 110 °C	CCC(C)(C)C1=CC(=CC(=O)O)C=C(C(C)(C)CC)C1=O
190 to 192 °C	Nc1nnc(-c2cccc(OCc3c(Cl)cccc3Cl)c2)c(N)n1
42 to 43 °C	N#CCCCCCCCCNS(=O)(=O)c1cccc(Cl)c1
252 to 254 °C	CC(=O)Nc1ccc(NC(=O)NC23CC4CC(CC(C4)C2)C3)cn1
118 to 119 °C	Cc1c(CNCC(C)C)[nH]c2c(C)c(NC(=O)c3ccc(OC[C@@H]4CCCO4)cc3)ccc12
142 to 144 °C	CCCCc1c(-c2cc3ccccc3o2)nc(N)nc1-c1cc2ccccc2o1
190 to 192 °C	CCOCc1nc2c(N)nc3cc(Br)ccc3c2n1CC1CCCCN1C(=O)OC(C)(C)C (stereo not given)
100 to 102 °C	O=C1c2ccc(Cl)cc2OCc2cccnc21
225 to 228 °C	Nc1nc(-c2ccccc2)c(-c2ccc(=O)n(Cc3ccccc3)n2)s1
70 to 71 °C	Cc1ccc(C(=O)N(C)C2CCCCC2)cc1
203 to 206 °C	Cc1c(N2CC[C@@H](C3(NC(=O)OC(C)(C)C)CC3)C2)cc(O)c2c(=O)c(C(=O)O)cn([C@@H]3C[C@@H]3F)c12
108 °C	CCOC(=O)c1cc([N+](=O)[O-])cc(Br)c1O
96 to 97 °C	C[C@H](N=C(C(=O)N[C@@H](C)c1ccccc1)C(C)(C)C)c1ccccc1
306 °C	O=C(O)Cn1c(=O)[nH]c(=O)c2ccc(Cl)cc21
63 to 66 °C	COc1ccc(C(=O)Nc2ccc(-c3ccc(C=O)cc3C)c(C)c2)cc1CCCN(C)C
178 to 180 °C	Cc1ccc(-c2cccc(/C=C/C(=O)Nc3ccc(CCl)cc3)c2)cc1
275 °C	O=C(Nc1ccc2ccc(Cl)nc2n1)c1ccc(Cl)s1
119 to 120 °C	COc1cc(COc2cc(C=O)n(-c3ccccc3)n2)ccc1OCc1nc(-c2ccccc2)oc1C
166 to 168 °C	CCOC(=O)c1cc(NS(=O)(=O)c2ccc(Cl)nc2)ccc1Oc1cncc(Cl)c1
106 to 108 °C	COCCOc1ccccc1OS(=O)(=O)NC(=O)Nc1nc(OC)cc(OC)n1

Structure (SMILES)	melting point
CC(=O)OCc1cn2c(n1)CN=C(c1ccccc1F)c1cc(Cl)ccc1-2	134 to 136 °C
CSP(=S)(C1CCCCC1)C1CCCCC1	75 to 75.5 °C
CCCCCCCCCN(c1ccccc1)P(=O)(O)O	64 to 65 °C
O=C(NCc1ccc(Cl)cc1)c1cn(CCCOC2CCCCO2)c2c(F)cc(CO)cc2c1=O (stereo not given)	148 to 150 °C
